Patent US11498903B2 (BRISTOL-MYERS SQUIBB COMPANY, priority 2017, dated 2022)
Like-named read-outs stand apart in the source and are kept apart here.

Biological target: T1, human APJ receptor (Homo sapiens, UniProt P35414)
T1 construct: expressed in transfected cells
T1 sequence (P35414 1-380): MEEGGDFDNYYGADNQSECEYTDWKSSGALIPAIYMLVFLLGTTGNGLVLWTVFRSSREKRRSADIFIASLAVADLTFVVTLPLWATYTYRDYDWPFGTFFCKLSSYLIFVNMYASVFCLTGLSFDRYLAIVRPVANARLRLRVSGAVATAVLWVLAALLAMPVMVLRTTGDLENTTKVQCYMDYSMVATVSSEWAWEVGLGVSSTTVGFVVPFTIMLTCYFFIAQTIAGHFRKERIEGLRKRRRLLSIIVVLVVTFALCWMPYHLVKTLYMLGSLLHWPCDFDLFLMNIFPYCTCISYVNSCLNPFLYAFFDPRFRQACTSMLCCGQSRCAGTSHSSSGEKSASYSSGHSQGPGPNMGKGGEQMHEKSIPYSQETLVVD
Test: Intracellular cAMP accumulation assay (APJ hcAMP, HTRF)
Type: cell-based
Details: HEK293 cells stably expressing human APJ receptor
How it was run: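 HEK293 cells stably expressing human APJ, 5,000/well, incubated 30 min at room temperature with compound plus […] and 2 μM forskolin. cAMP read by HTRF against a cAMP standard curve; EC50 from variable-slope sigmoidal fit, Ymax as % of (Pyr1)apelin-13 inhibition.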

[1] = Table 1, inhibition of forskolin-mediated cAMP production, read-out: APJ hcAMP EC50
[2] = Table 2, read-out: APJ cAMP Human EC50

Structure (SMILES)	EC50 [1]	EC50 [2]	EC50 (Table 3, read-out: APJ cAMP Human EC50)
CCC[C@@H](NC(=O)c1ccc(-c2ccc(Cl)cc2-c2nc3cc(OC)ccc3[nH]2)c(C(=O)O)c1)c1ccccc1 [Example 57, 4′-chloro-2′-(5-methoxy-1H-1,3-benzodiazol-2-yl)-4-{[(1R)-1-phenylbutyl]carbamoyl}-[1,1′-biphenyl]-2-carboxylic acid]	< 0.01 µM	< 0.01 µM	–
CCC[C@@H](NC(=O)c1ccc(-c2ccccc2-c2nc3cc(OC)ccc3[nH]2)c(C(=O)O)c1)c1ccccc1 [Example 58, 2′-(5-methoxy-1H-1,3-benzodiazol-2-yl)-4-{[(1R)-1-phenylbutyl]carbamoyl}-[1,1′-biphenyl]-2-carboxylic acid]	< 0.01 µM	< 0.01 µM	–
CCC[C@@H](NC(=O)c1ccc(-c2cc(OC)ccc2-c2nc3cc(OC)ccc3[nH]2)c(C(=O)O)c1)c1ccccc1 [Example 59, 5′-methoxy-2′-(5-methoxy-1H-1,3-benzodiazol-2-yl)-4-{[(1R)-1-phenylbutyl]carbamoyl}-[1,1′-biphenyl]-2-carboxylic acid]	< 0.01 µM	< 0.01 µM	–
CCC[C@@H](NC(=O)c1ccc(-c2cc(C(F)(F)F)ccc2-c2nc3cc(C(C)(C)C)ccc3[nH]2)c(C(=O)O)c1)c1ccccc1 [Example 60, 2′-(5-tert-butyl-1H-1,3-benzodiazol-2-yl)-4-{[(1R)-1-phenylbutyl]carbamoyl}-5′-(trifluoromethyl)-[1,1′-biphenyl]-2-carboxylic acid]	< 0.01 µM	< 0.01 µM	–
CCC[C@@H](NC(=O)c1ccc(-c2cc(OC)ccc2-c2nc3cc(C(C)(C)C)ccc3[nH]2)c(C(=O)O)c1)c1ccccc1 [Example 61, 2′-(5-tert-butyl-1H-1,3-benzodiazol-2-yl)-5′-methoxy-4-{[(1R)-1-phenylbutyl]carbamoyl}-[1,1′-biphenyl]-2-carboxylic acid]	< 0.01 µM	< 0.01 µM	–
CCC[C@@H](NC(=O)c1ccc(-c2ccccc2-c2nc3cc(C(C)(C)C)ccc3[nH]2)c(C(=O)O)c1)c1ccccc1 [Example 62, 2′-(5-tert-butyl-1H-1,3-benzodiazol-2-yl)-4-{[(1R)-1-phenylbutyl]carbamoyl}-[1,1′-biphenyl]-2-carboxylic acid]	0.01 to 0.1 µM	< 0.01 µM	–
CCC[C@@H](NC(=O)c1ccc(-c2ccc(Cl)cc2-c2nc3cc(C(C)(C)C)ccc3[nH]2)c(C(=O)O)c1)c1ccccc1 [Example 63, 2′-(5-tert-butyl-1H-1,3-benzodiazol-2-yl)-4′-chloro-4-{[(1R)-1-phenylbutyl]carbamoyl}-[1,1′-biphenyl]-2-carboxylic acid]	0.01 to 0.1 µM	0.01 to 0.1 µM	–
COC[C@@H](NC(=O)c1ccc(-c2ccccc2-c2nc3cc(OC)ccc3[nH]2)c(C(=O)O)c1)c1ccccc1 [Example 64, 4-{[(1S)-2-methoxy-1-phenylethyl]carbamoyl}-2′-(5-methoxy-1H-1,3-benzodiazol-2-yl)-[1,1′-biphenyl]-2-carboxylic acid]	< 0.01 µM	< 0.01 µM	–
COC[C@@H](NC(=O)c1ccc(-c2ccccc2-c2nc3cc(C(C)(C)C)ccc3[nH]2)c(C(=O)O)c1)c1ccccc1 [Example 65, 2′-(5-tert-butyl-1H-1.3-benzodiazol-2-yl)-4-{[(1S)-2-methoxy-1-phenylethyl]carbamoyl}-[1,1′-biphenyl]-2-carboxylic acid]	< 0.01 µM	< 0.01 µM	–
COC[C@@H](NC(=O)c1ccc(-c2ccccc2-c2nc3ccccc3[nH]2)c(C(=O)O)c1)c1ccccc1 [Example 66, 2′-(1H-1,3-benzodiazol-2-yl)-4-{[(1S)-2-methoxy-1-phenylethyl]carbamoyl}-[1,1′-biphenyl]-2-carboxylic acid]	0.01 to 0.1 µM	0.01 to 0.1 µM	–
CCC[C@@H](NC(=O)c1cc(C(=O)O)c(-c2cc(Cl)ccc2-c2nc3cc(OC)ccc3[nH]2)cc1C)c1ccccc1 [Example 67, 5′-chloro-2′-(5-methoxy-1H-1,3-benzodiazol-2-yl)-5-methyl-4-{[(1R)-1-phenylbutyl]carbamoyl}-[1,1′-biphenyl]-2-carboxylic acid]	< 0.01 µM	< 0.01 µM	–
CCC[C@@H](NC(=O)c1cc(C(=O)O)c(-c2cc(Cl)ccc2-c2nc3cc(C(C)(C)C)ccc3[nH]2)cc1C)c1ccccc1 [Example 68, 2,-(5-tert-butyl-1H-1,3-benzodiazol-2-yl)-5′-chloro-5-methyl-4-{[(1R)-1-phenylbutyl]carbamoyl}-[1,1′-biphenyl]-2-carboxylic acid]	< 0.01 µM	< 0.01 µM	–
COC[C@@H](NC(=O)c1ccc(-c2cc(Cl)ccc2-c2nc3ccccc3[nH]2)c(C(=O)O)c1)c1ccccc1 [Example 69, 2′-(1H-1,3-benzodiazol-2-yl)-5′-chloro-4-{[(1S)-2-methoxy-1-phenylethyl]carbamoyl}-[1,1′-biphenyl]-2-carboxylic acid]	< 0.01 µM	< 0.01 µM	–

Further lines, results first:

EC50 [1]	EC50 [2]	EC50 (Table 3, read-out: APJ cAMP Human EC50)	Structure (SMILES)
< 0.01 µM	< 0.01 µM	–	COc1ccccc1[C@@H](C)NC(=O)c1ccc(-c2cc(Cl)ccc2-c2nc3ccccc3[nH]2)c(C(=O)O)c1 [Example 70, 2′-(1H-1,3-benzodiazol-2-yl)-5′-chloro-4-{[(1R)-1-(2-methoxyphenyl)ethyl]carbamoyl}-[1,1′-biphenyl]-2-carboxylic acid]
0.01 to 0.1 µM	0.01 to 0.1 µM	–	CCC[C@H](NC(=O)c1ccc(-c2cc(Cl)ccc2-c2nc3ccccc3[nH]2)c(C(=O)O)c1)c1ccccc1 [Example 71, 2′-(1H-1,3-benzodiazol-2-yl)-5′-chloro-4-{[(1S)-1-phenylbutyl]carbamoyl}-[1,1′-biphenyl]-2-carboxylic acid]
0.01 to 0.1 µM	0.01 to 0.1 µM	–	C[C@@H](NC(=O)c1ccc(-c2cc(Cl)ccc2-c2nc3ccccc3[nH]2)c(C(=O)O)c1)c1cccc(Cl)c1 [Example 72, 2′-(1H-1,3-benzodiazol-2-yl)-5′-chloro-4-{[(1R)-1-(3-chlorophenyl)ethyl]carbamoyl}-[1,1′-biphenyl]-2-carboxylic acid]
0.01 to 0.1 µM	0.01 to 0.1 µM	–	C[C@@H](NC(=O)c1ccc(-c2cc(Cl)ccc2-c2nc3ccccc3[nH]2)c(C(=O)O)c1)c1cccc2ccccc12 [Example 73, 2′-(1H-1,3-benzodiazol-2-yl)-5′-chloro-4-{[(1R)-1-(naphthalen-1-yl)ethyl]carbamoyl}-[1,1′-biphenyl]-2-carboxylic acid]
0.01 to 0.1 µM	0.01 to 0.1 µM	–	COc1cccc([C@@H](C)NC(=O)c2ccc(-c3cc(Cl)ccc3-c3nc4ccccc4[nH]3)c(C(=O)O)c2)c1 [Example 74, 2′-(1H-1,3-benzodiazol-2-yl)-5′-chloro-4-{[(1R)-1-(3-methoxyphenyl)ethyl]carbamoyl}-[1,1′-biphenyl]-2-carboxylic acid]
0.01 to 0.1 µM	0.01 to 0.1 µM	–	C[C@@H](NC(=O)c1ccc(-c2cc(Cl)ccc2-c2nc3ccccc3[nH]2)c(C(=O)O)c1)c1ccccc1Cl [Example 75, 2′-(1H-1,3-benzodiazol-2-yl)-5′-chloro-4-{[(1R)-1-(2-chlorophenyl)ethyl]carbamoyl}-[1,1′-biphenyl]-2-carboxylic acid]
0.01 to 0.1 µM	0.01 to 0.1 µM	–	C[C@@H](NC(=O)c1ccc(-c2cc(Cl)ccc2-c2nc3ccccc3[nH]2)c(C(=O)O)c1)c1ccccc1 [Example 76, 2′-(1H-1,3-benzodiazol-2-yl)-5′-chloro-4-{[(1R)-1-phenylethyl]carbamoyl}-[1,1′-biphenyl]-2-carboxylic acid]
0.01 to 0.1 µM	0.01 to 0.1 µM	–	CN(C)C[C@@H](NC(=O)c1ccc(-c2cc(Cl)ccc2-c2nc3ccccc3[nH]2)c(C(=O)O)c1)c1ccccc1 [Example 77, 2′-(1H-1,3-benzodiazol-2-yl)-5′-chloro-4-{[(1S)-2-(dimethylamino)-1-phenylethyl]carbamoyl}-[1,1′-biphenyl]-2-carboxylic acid]
0.101 to 0.5 µM	0.101 to 0.5 µM	–	COC[C@H](Cc1ccccc1)NC(=O)c1ccc(-c2cc(Cl)ccc2-c2nc3ccccc3[nH]2)c(C(=O)O)c1 [Example 78, 2′-(1H-1,3-benzodiazol-2-yl)-5′-chloro-4-{[(2S)-1-methoxy-3-phenylpropan-2-yl]carbamoyl}-[1,1′-biphenyl]-2-carboxylic acid]
< 0.01 µM	< 0.01 µM	–	COC[C@@H](NC(=O)c1ccc(-c2cc(Cl)ccc2-c2nc3cc(Cl)ccc3[nH]2)c(C(=O)O)c1)c1ccccc1 [Example 79, 5′-chloro-2′-(5-chloro-1H-1,3-benzodiazol-2-yl)-4-{[(1S)-2-methoxy-1-phenylethyl]carbamoyl}-[1,1′-biphenyl]-2-carboxylic acid]
< 0.01 µM	< 0.01 µM	–	COC[C@@H](NC(=O)c1ccc(-c2cc(Cl)ccc2-c2nc3cc(C(C)(C)C)ccc3[nH]2)c(C(=O)O)c1)c1ccccc1 [Example 80, 2′-(5-tert-butyl-1H-1,3-benzodiazol-2-yl)-5′-chloro-4-{[(1S)-2-methoxy-1-phenylethyl]carbamoyl}-[1,1′-biphenyl]-2-carboxylic acid]
–	–	< 0.01 µM	CCCC(NC(=O)c1ccc(-c2c(Cl)cccc2-c2nc3cc(OC)c(F)cc3[nH]2)c(C(=O)O)c1)c1ccccc1 [Example 84, (S)-2′-chloro-6′-(6-fluoro-5-methoxy-1H-1,3-benzodiazol-2-yl)-4-{[(1R)-1-phenylbutyl]carbamoyl}-[1,1′-biphenyl]-2-carboxylic acid]
